US11332503B2, “Peptides for treatment and prevention of hyperglycaemia” (UNIVERSITE DE STRASBOURG, priority 2017, dated 2022)
Positions of bridges follow the written chain, without caps; N, C: chain ends. Non-standard residues stand in square brackets, D forms with d. R8 = C=CCCCCCC[C@@](C)(N)C(=O)O; S5 = C=CCCC[C@](C)(N)C(=O)O

System: human primary adipocytes
Experiment: In vitro 2-deoxy-D-glucose-6-phosphate (DG6P) uptake in human primary adipocytes
Type: cell-based
Description: Human white visceral preadipocytes (Catalog #: C-12732; PromoCell) were purchased. The preadipocytes were seeded according to manufacturer's protocol and cultured in the Preadipocyte growth medium (Catalog #: C-27410; PromoCell) to confluence. Once confluence was reached, adipogenic differentiation was triggered through medium change to get mature human adipocytes. For the culture without insulin, Adipocyte Basal Medium (Catalog #: C-2431; PromoCell) without insulin was complemented with 5 g/L of […], 8 μg/mL d-Biotin, 400 ng/mL Dexamethasone (following manufacturer's procedure). Native peptides and their stapled counterparts as well as the scrambled peptides (corresponding to the same set of amino acids but rearranged randomly) were purchased from Eurogentec. Each peptide was diluted in saline and used at a dose of 2.5 ng per 10 cm square of cell culture surface area for in vitro studies or 2.5 ng of each peptide (A and B) was injected per mouse.
Mature adipocytes were cultured in 96 well plate. The adipocytes received the different peptides at the indicated concentration above. 24 hours later, the glucose absorption capacity if the treated cells were assessed using the Glucose Uptake Colorimetric Assay kit from Bio Vision (Catalog #: K676-100).
In vivo assessment of the effect of stapled peptides A and B injection in the adipose tissue of diet-induced diabetic WT mice. Mice were fed with a defined high fat/high glucose diet until they became intolerant to glucose (FIG. 5A, Prior Injection). Once the mice were glucose intolerant, these mice received an injection with a combination of the stapled peptides A and B directly in the subcutaneous fat and GTT was again performed a week later as depicted in FIG. 5B. […] FIG. 5C depicts pictures of the adipose tissue which received a combination of the stapled peptides A and B labelled with FAM (green dots indicated with the white arrows). […] A variety of modified stapled peptides were designed to test the effect of modifying the peptide sequence on insulin-independent glucose uptake into adipocytes. Peptides were obtained from CPC Scientific. Additional in vitro 2-deoxy-D-glucose-6-phosphate (DG6P) uptake results in human primary adipocytes for individual peptides of the present technology are provided in Tables 1-3.

[1] = Table 2 dose response, 0.001 μM

## +Insulin: insulin-treated adipocytes, positive control of the DG6P uptake assay [reference compound]
Table 1, +Insulin control
  2-DG6P: 94.2 pmol
  2-DG6P compared to -Insulin (%): 312.6%
Table 2, +Ins control
  2-DG6P: 79.3 pmol
  2-DG6P compared to -Insulin (%): 363.3%
Table 3, +Insulin control
  2-DG6P: 87.9 pmol
  2-DG6P compared to -Insulin (%): 639.6%

## H-LPHET-R8-RLSQKV-S5-TKLDCLMFVEPA-OH [AT004] (H-LPHET[R8]RLSQKV[S5]TKLDCLMFVEPA-OH; staple 6-13; SMILES CSCC[C@H](NC(=O)[C@H](CC(C)C)NC(=O)[C@H](CS)NC(=O)[C@H](CC(=O)O)NC(=O)[C@H](CC(C)C)NC(=O)[C@H](CCCCN)NC(=O)[C@@H](NC(=O)[C@]1(C)CCCC=CCCCCCC[C@@](C)(NC(=O)[C@@H](NC(=O)[C@H](CCC(=O)O)NC(=O)[C@H](Cc2c[nH]cn2)NC(=O)[C@@H]2CCCN2C(=O)[C@@H](N)CC(C)C)[C@@H](C)O)C(=O)N[C@@H](CCCNC(=N)N)C(=O)N[C@@H](CC(C)C)C(=O)N[C@@H](CO)C(=O)N[C@@H](CCC(N)=O)C(=O)N[C@@H](CCCCN)C(=O)N[C@@H](C(C)C)C(=O)N1)[C@@H](C)O)C(=O)N[C@@H](Cc1ccccc1)C(=O)N[C@H](C(=O)N[C@@H](CCC(=O)O)C(=O)N1CCC[C@H]1C(=O)N[C@@H](C)C(=O)O)C(C)C) [reference compound]
Table 1, peptides at 50 μM
  2-DG6P: 29.5 pmol
  2-DG6P compared to -Insulin (%): 98.0%

## H-LPHET-R8-RLSQKV-S5-TKLDCLMFVEPA-OH [AT005] (H-LPHET[R8]RLSQKV[S5]TKLDCLMFVEPA-OH; staple 6-13; SMILES CSCC[C@H](NC(=O)[C@H](CC(C)C)NC(=O)[C@H](CS)NC(=O)[C@H](CC(=O)O)NC(=O)[C@H](CC(C)C)NC(=O)[C@H](CCCCN)NC(=O)[C@@H](NC(=O)[C@]1(C)CCCC=CCCCCCC[C@@](C)(NC(=O)[C@@H](NC(=O)[C@H](CCC(=O)O)NC(=O)[C@H](Cc2c[nH]cn2)NC(=O)[C@@H]2CCCN2C(=O)[C@@H](N)CC(C)C)[C@@H](C)O)C(=O)N[C@@H](CCCNC(=N)N)C(=O)N[C@@H](CC(C)C)C(=O)N[C@@H](CO)C(=O)N[C@@H](CCC(N)=O)C(=O)N[C@@H](CCCCN)C(=O)N[C@@H](C(C)C)C(=O)N1)[C@@H](C)O)C(=O)N[C@@H](Cc1ccccc1)C(=O)N[C@H](C(=O)N[C@@H](CCC(=O)O)C(=O)N1CCC[C@H]1C(=O)N[C@@H](C)C(=O)O)C(C)C) [reference compound]
Table 1, peptides at 50 μM
  2-DG6P: 27.7 pmol
  2-DG6P compared to -Insulin (%): 92.0%

## H-LPHET-R8-RLSQKV-S5-TKLDCLMFVEPA-OH [AT006] (H-LPHET[R8]RLSQKV[S5]TKLDCLMFVEPA-OH; staple 6-13; SMILES CSCC[C@H](NC(=O)[C@H](CC(C)C)NC(=O)[C@H](CS)NC(=O)[C@H](CC(=O)O)NC(=O)[C@H](CC(C)C)NC(=O)[C@H](CCCCN)NC(=O)[C@@H](NC(=O)[C@]1(C)CCCC=CCCCCCC[C@@](C)(NC(=O)[C@@H](NC(=O)[C@H](CCC(=O)O)NC(=O)[C@H](Cc2c[nH]cn2)NC(=O)[C@@H]2CCCN2C(=O)[C@@H](N)CC(C)C)[C@@H](C)O)C(=O)N[C@@H](CCCNC(=N)N)C(=O)N[C@@H](CC(C)C)C(=O)N[C@@H](CO)C(=O)N[C@@H](CCC(N)=O)C(=O)N[C@@H](CCCCN)C(=O)N[C@@H](C(C)C)C(=O)N1)[C@@H](C)O)C(=O)N[C@@H](Cc1ccccc1)C(=O)N[C@H](C(=O)N[C@@H](CCC(=O)O)C(=O)N1CCC[C@H]1C(=O)N[C@@H](C)C(=O)O)C(C)C) [reference compound]
Table 1, peptides at 50 μM
  2-DG6P: 30.7 pmol
  2-DG6P compared to -Insulin (%): 102.0%

## H-VE(AAB)TM-R8-EKRVLA-S5-LDKPPFLTQLHS-OH [AT017]
Table 1, peptides at 50 μM
  2-DG6P: 55.4 pmol
  2-DG6P compared to -Insulin (%): 184.0%

## H-VECT(AAH)-R8-EKRVLA-S5-LDKPPFLTQLHS-OH [AT018]
Table 1, peptides at 50 μM
  2-DG6P: 28.2 pmol
  2-DG6P compared to -Insulin (%): 93.5%

## H-VECTM-R8-EKRVLA-S5-LD-OH (H-VECTM[R8]EKRVLA[S5]LD-OH; staple 6-13; SMILES CSCC[C@H](NC(=O)[C@@H](NC(=O)[C@H](CS)NC(=O)[C@H](CCC(=O)O)NC(=O)[C@@H](N)C(C)C)[C@@H](C)O)C(=O)N[C@]1(C)CCCCCCC=CCCC[C@@](C)(C(=O)N[C@@H](CC(C)C)C(=O)N[C@@H](CC(=O)O)C(=O)O)NC(=O)[C@H](C)NC(=O)[C@H](CC(C)C)NC(=O)[C@H](C(C)C)NC(=O)[C@H](CCCNC(=N)N)NC(=O)[C@H](CCCCN)NC(=O)[C@H](CCC(=O)O)NC1=O) [AT016]
Table 1, peptides at 50 μM
  2-DG6P: 51.5 pmol
  2-DG6P compared to -Insulin (%): 170.9%
Table 3 dose response, 1 μM
  2-DG6P: 23.7 pmol
  2-DG6P compared to -Insulin (%): 172.4%
Table 3 dose response, 10 μM
  2-DG6P: 38.6 pmol
  2-DG6P compared to -Insulin (%): 280.6%
Table 3 dose response, 100 μM
  2-DG6P: 51.4 pmol
  2-DG6P compared to -Insulin (%): 373.7%

## H-VECTM-R8-EKRVLA-S5-LDKP-OH (H-VECTM[R8]EKRVLA[S5]LDKP-OH; staple 6-13; SMILES CSCC[C@H](NC(=O)[C@@H](NC(=O)[C@H](CS)NC(=O)[C@H](CCC(=O)O)NC(=O)[C@@H](N)C(C)C)[C@@H](C)O)C(=O)N[C@]1(C)CCCCCCC=CCCC[C@@](C)(C(=O)N[C@@H](CC(C)C)C(=O)N[C@@H](CC(=O)O)C(=O)N[C@@H](CCCCN)C(=O)N2CCC[C@H]2C(=O)O)NC(=O)[C@H](C)NC(=O)[C@H](CC(C)C)NC(=O)[C@H](C(C)C)NC(=O)[C@H](CCCNC(=N)N)NC(=O)[C@H](CCCCN)NC(=O)[C@H](CCC(=O)O)NC1=O) [AT015]
Table 1, peptides at 50 μM
  2-DG6P: 35.7 pmol
  2-DG6P compared to -Insulin (%): 118.6%
Table 3 dose response, 1 μM
  2-DG6P: 16.6 pmol
  2-DG6P compared to -Insulin (%): 121.0%
Table 3 dose response, 10 μM
  2-DG6P: 28.9 pmol
  2-DG6P compared to -Insulin (%): 210.6%
Table 3 dose response, 100 μM
  2-DG6P: 39.2 pmol
  2-DG6P compared to -Insulin (%): 284.9%

## H-VECTM-R8-EKRVLA-S5-LDKPPF-OH (H-VECTM[R8]EKRVLA[S5]LDKPPF-OH; staple 6-13; SMILES CSCC[C@H](NC(=O)[C@@H](NC(=O)[C@H](CS)NC(=O)[C@H](CCC(=O)O)NC(=O)[C@@H](N)C(C)C)[C@@H](C)O)C(=O)N[C@]1(C)CCCCCCC=CCCC[C@@](C)(C(=O)N[C@@H](CC(C)C)C(=O)N[C@@H](CC(=O)O)C(=O)N[C@@H](CCCCN)C(=O)N2CCC[C@H]2C(=O)N2CCC[C@H]2C(=O)N[C@@H](Cc2ccccc2)C(=O)O)NC(=O)[C@H](C)NC(=O)[C@H](CC(C)C)NC(=O)[C@H](C(C)C)NC(=O)[C@H](CCCNC(=N)N)NC(=O)[C@H](CCCCN)NC(=O)[C@H](CCC(=O)O)NC1=O) [AT014]
Table 1, peptides at 50 μM
  2-DG6P: 58.8 pmol
  2-DG6P compared to -Insulin (%): 195.1%

## H-VECTM-R8-EKRVLA-S5-LDKPPFLTQLHS-NH2 [AT003]
Table 1, peptides at 50 μM
  2-DG6P: 46.2 pmol
  2-DG6P compared to -Insulin (%): 153.3%

## H-VECTM-R8-EKRVLA-S5-LDKPPFLTQLHS-OH [AT001]
Table 1, peptides at 50 μM
  2-DG6P: 44.2 pmol
  2-DG6P compared to -Insulin (%): 146.8%
[1]
  2-DG6P: 19.9 pmol
  2-DG6P compared to -Insulin (%): 91.2%
Table 2 dose response, 0.01 μM
  2-DG6P: 21.3 pmol
  2-DG6P compared to -Insulin (%): 97.5%
Table 2 dose response, 0.1 μM
  2-DG6P: 22.3 pmol
  2-DG6P compared to -Insulin (%): 102.0%
Table 2 dose response, 1 μM
  2-DG6P: 23.9 pmol
  2-DG6P compared to -Insulin (%): 109.6%
Table 2 dose response, 10 μM
  2-DG6P: 31.7 pmol
  2-DG6P compared to -Insulin (%): 145.2%
Table 2 dose response, 100 μM
  2-DG6P: 47.2 pmol
  2-DG6P compared to -Insulin (%): 216.1%

## H-VECTM-R8-EKRVLA-S5-LDKPPFLTQLHS-OH [AT007]
Table 1, peptides at 50 μM
  2-DG6P: 57.7 pmol
  2-DG6P compared to -Insulin (%): 191.5%
Table 2 dose response, 0.1 μM
  2-DG6P: 23.2 pmol
  2-DG6P compared to -Insulin (%): 106.5%
Table 2 dose response, 1 μM
  2-DG6P: 24.0 pmol
  2-DG6P compared to -Insulin (%): 110.1%
Table 2 dose response, 10 μM
  2-DG6P: 36.0 pmol
  2-DG6P compared to -Insulin (%): 165.0%
Table 2 dose response, 100 μM
  2-DG6P: 55.5 pmol
  2-DG6P compared to -Insulin (%): 254.3%

## H-VECTM-R8-EKRVLA-S5-LDKPPFLTQLHS-OH [AT021]
Table 1, peptides at 50 μM
  2-DG6P: 37.5 pmol
  2-DG6P compared to -Insulin (%): 124.6%

## H-VECTM-S5-EKR-S5-LALLDKPPFLTQLHS-OH [AT008]
Table 1, peptides at 50 μM
  2-DG6P: 53.3 pmol
  2-DG6P compared to -Insulin (%): 177.0%
